The values below are quoted from earlier work in patent US20180055813A1, “COMPOSITIONS AND METHODS FOR TREATING ATRIAL FIBRILLATION” (Edge Therapeutics, Inc., priority 2016, published 2018).

Read-outs that look alike come from different tables or passages of the source.

For series [1], the system named is voltage-dependent sodium channels. Particulars: relative to phenytoin.
Series [2] relates to high-plateau action potentials.
Series [3] relates to K+ and Na+ currents, and L, P/Q and T-type calcium currents.
For a further series, the target named is N-type calcium current (Homo sapiens, UniProt Q00975). Particulars: at 300 nM to 500 nM.
For series [4] the following is noted: phase III clinical trials, compared with placebo.
For series [5] the following is noted: for incidence of postoperative AF: AFIST I, patients >60 years.

N-type calcium current, sequence (Q00975 whole entry): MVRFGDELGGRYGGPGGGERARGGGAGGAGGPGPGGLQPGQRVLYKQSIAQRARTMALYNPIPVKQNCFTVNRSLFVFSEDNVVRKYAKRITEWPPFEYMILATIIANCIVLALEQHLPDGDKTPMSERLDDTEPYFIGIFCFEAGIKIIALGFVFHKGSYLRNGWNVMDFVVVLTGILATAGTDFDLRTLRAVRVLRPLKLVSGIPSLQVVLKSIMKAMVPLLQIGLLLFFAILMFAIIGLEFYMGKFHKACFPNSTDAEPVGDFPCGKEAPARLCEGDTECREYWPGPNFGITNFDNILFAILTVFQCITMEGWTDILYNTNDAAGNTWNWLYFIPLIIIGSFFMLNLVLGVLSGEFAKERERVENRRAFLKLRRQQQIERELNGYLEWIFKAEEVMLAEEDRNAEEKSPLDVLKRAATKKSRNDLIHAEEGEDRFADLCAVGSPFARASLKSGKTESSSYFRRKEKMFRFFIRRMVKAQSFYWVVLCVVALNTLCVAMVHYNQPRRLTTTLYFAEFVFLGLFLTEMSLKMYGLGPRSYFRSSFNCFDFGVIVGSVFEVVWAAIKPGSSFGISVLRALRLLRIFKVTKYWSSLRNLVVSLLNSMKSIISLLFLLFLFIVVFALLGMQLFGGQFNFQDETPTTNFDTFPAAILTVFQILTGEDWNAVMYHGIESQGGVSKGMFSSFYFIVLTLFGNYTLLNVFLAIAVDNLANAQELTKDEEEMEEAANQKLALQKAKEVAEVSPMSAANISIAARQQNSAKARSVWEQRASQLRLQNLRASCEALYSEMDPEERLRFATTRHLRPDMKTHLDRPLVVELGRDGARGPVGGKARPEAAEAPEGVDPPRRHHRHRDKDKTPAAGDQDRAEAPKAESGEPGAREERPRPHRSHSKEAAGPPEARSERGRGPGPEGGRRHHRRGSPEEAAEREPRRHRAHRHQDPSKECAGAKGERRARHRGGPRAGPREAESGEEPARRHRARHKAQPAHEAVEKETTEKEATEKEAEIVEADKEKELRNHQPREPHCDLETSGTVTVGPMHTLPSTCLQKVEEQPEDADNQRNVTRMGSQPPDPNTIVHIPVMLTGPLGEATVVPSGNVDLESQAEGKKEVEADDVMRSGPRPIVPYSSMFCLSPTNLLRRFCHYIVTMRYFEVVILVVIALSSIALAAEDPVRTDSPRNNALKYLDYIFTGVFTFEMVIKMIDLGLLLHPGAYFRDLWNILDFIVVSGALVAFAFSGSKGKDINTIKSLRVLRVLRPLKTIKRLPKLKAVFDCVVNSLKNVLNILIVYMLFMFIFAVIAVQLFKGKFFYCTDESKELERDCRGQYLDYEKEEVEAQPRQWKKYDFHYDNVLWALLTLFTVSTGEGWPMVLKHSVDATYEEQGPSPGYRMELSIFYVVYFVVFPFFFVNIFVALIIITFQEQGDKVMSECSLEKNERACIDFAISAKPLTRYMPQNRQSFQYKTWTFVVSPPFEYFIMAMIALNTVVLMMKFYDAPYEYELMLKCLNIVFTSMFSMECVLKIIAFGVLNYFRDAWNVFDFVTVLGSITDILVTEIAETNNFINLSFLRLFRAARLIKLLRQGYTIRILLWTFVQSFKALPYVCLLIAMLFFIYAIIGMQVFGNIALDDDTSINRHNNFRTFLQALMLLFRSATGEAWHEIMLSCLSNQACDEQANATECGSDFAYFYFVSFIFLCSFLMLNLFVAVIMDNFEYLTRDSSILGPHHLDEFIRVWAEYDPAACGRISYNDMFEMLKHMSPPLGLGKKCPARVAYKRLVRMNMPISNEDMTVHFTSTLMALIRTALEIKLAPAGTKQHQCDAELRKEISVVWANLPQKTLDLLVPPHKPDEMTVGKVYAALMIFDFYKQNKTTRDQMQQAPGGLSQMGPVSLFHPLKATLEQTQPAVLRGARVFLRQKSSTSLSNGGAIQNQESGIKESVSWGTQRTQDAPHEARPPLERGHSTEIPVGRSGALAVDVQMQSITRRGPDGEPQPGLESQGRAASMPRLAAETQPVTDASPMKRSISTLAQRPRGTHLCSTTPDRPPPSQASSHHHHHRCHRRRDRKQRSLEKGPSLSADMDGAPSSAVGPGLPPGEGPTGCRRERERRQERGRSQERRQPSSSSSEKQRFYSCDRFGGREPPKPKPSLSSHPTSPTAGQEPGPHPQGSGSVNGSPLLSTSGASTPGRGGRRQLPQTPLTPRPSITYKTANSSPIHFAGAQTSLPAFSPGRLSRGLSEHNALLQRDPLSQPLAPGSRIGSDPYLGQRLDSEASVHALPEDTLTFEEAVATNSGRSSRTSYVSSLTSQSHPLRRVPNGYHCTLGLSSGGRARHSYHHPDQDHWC

For the molecule `NC(=O)N1c2ccccc2C=Cc2ccccc21` [carbamazepine], in series [1], the “faster rate of binding to depolarized channels compared to phenytoin” value is reported as 5 fold and the “lower affinity for depolarized channels compared to phenytoin” value was 3 fold.

`CCOC(=O)[C@H](CCc1ccccc1)N[C@@H](C)C(=O)N1CCC[C@H]1C(=O)O` [enalapril]: the “relative risk reduction for the development of AF” value (compared to placebo) is on record as 78%.

On to `Cc1oc2ccccc2c1Cc1cc(I)c(OCC(=O)O)c(I)c1` [KB130015, 2-methyl-3-(3,5-diiodo-4-carboxymethoxybenzyl)benzofuran], for which the “QT lengthening / prolongation of high-plateau action potentials” value in series [2] was “devoid of QT lengthening effects”.

Turning to SNX-482, the “block of R-type calcium current” value in the series on R-type calcium current (neurohypophysial nerve endings, 40 nM concentration) is recorded as “blocks”. In addition, the “effect on R-type current” value in the series with R-type calcium current (preparations of the neuronal cell body, retinal ganglion cells and hippocampal pyramidal cells) was “no significant effect”. Moreover, in series [3], the “effect on K+ and Na+ currents, and L, P/Q and T-type calcium currents” value is “no effect”. Further, the “N-type calcium current blocked” value on N-type calcium current is given as 30-50%.

For the molecule `CCCCc1oc2ccc(NS(C)(=O)=O)cc2c1C(=O)c1ccc(OCCCN(CCCC)CCCC)cc1` [dronedarone, n-(2-butyl-3-(4-(3-dibutylaminopropoxy)-benzoyl)benzofuran-5-yl)-methanesulfonamide], the “lowering of risk of AF relapse” value in series [4] was 25%.

Consider `CCCCc1oc2ccccc2c1C(=O)c1cc(I)c(OCCN(CC)CC)c(I)c1` [amiodarone], for which the “incidence of postoperative AF, patients” value in series [5] (1-week pre-operative oral regimen, placebo 53%) is 25%; in series [5] (postoperative intravenous treatment, placebo 47%), 35%; in series [5] (treatment throughout the peri-operative period, placebo 25%), 16%. For the same molecule, the “incidence of postoperative AF” value in series [5] (amiodarone alone) is given as 35%; in series [5] (amiodarone with concomitant postoperative β-blockers) it was 16%.

Take `CCCCC1=NC2(CCCC2)C(=O)N1Cc1ccc(-c2ccccc2-c2nnn[nH]2)cc1` [irbesartan]: the “prevention of recurrence of AF” value (irbesartan plus amiodarone versus amiodarone alone) is “more effectively than amiodarone alone”.
